The source of these data is ChEMBL document CHEMBL1127379, “Three-dimensional molecular shape analysis-quantitative structure-activity relationship of a series of cholecystokinin-A receptor antagonists” (J Med Chem, 1994).

Each structure is given as a SMILES string.

This assay deals with T1, Cholecystokinin receptor type A (Rattus norvegicus, UniProt P30551).
T1 sequence (P30551 whole entry): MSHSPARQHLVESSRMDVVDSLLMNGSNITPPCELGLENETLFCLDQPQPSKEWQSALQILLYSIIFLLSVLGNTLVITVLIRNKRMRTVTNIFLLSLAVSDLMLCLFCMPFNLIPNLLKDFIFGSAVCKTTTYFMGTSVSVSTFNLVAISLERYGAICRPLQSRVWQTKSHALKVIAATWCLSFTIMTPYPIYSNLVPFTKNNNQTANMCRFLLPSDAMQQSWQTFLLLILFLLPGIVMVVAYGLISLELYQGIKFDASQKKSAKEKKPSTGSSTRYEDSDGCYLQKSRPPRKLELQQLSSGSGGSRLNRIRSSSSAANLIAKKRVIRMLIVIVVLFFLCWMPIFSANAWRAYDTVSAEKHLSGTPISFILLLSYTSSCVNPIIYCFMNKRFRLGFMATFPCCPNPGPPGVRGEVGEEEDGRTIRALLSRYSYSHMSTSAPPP
As to the kind of experiment: Binding affinity against cholecystokinin type A receptor of rat pancreas.

`CN1C(=O)[C@@H](NC(=O)c2ccc(Br)cc2)N=C(c2ccccc2)c2ccccc21`: the IC50 was 2.51 nM.

With `CN1C(=O)C(NC(=O)c2cccc(Br)c2)N=C(c2ccccc2F)c2ccccc21` (stereo not drawn), the concentration for half-maximal inhibition (IC50) was 3.47 nM.

For `CN1C(=O)C(NC(=O)c2ccc(C(F)(F)F)cc2)N=C(c2ccccc2)c2ccccc21` (stereo not drawn), the IC50 is 1.29 nM.

As to `O=C(NC1N=C(c2ccccc2)c2ccccc2NC1=O)c1ccc(O)cc1` (stereo not drawn), the IC50 was 1780 nM.

On to `CN1C(=O)C(NC(=O)c2ccccc2I)N=C(c2ccccc2F)c2ccccc21` (stereo not drawn), for which the IC50 was 794 nM.

The compound `CN1C(=O)C(NC(=O)c2ccc(Br)cc2)N=C(c2ccccc2F)c2ccccc21` (stereo not drawn) gave an IC50 of 0.794 nM.

`O=C(NC1N=C(c2ccccc2)c2ccccc2NC1=O)c1cc2ccccc2[nH]1` (stereo not drawn) gave an IC50 of 4.57 nM.

With `CN1C(=O)C(NC(=O)c2ccc(C#N)cc2)N=C(c2ccccc2F)c2ccccc21` (stereo not drawn), the half-maximal inhibitory concentration (IC50) was 42.7 nM.

With `CN1C(=O)[C@@H](NC(=O)c2ccc(Cl)cc2)N=C(c2ccccc2F)c2ccccc21`, the IC50 is 2.88 nM.

In turn, `O=C(NC1N=C(c2ccccc2F)c2ccccc2NC1=O)c1cc2cc(Cl)ccc2[nH]1` (stereo not drawn) gave an IC50 of 100 nM.

`O=C(CNc1ccccc1)NC1N=C(c2ccccc2F)c2ccccc2NC1=O` (stereo not drawn) gave an IC50 of 89.1 nM.

`CC1C(C(=O)NC2N=C(c3ccccc3F)c3ccccc3NC2=O)=Cc2ccccc21` (stereo not drawn): the IC50 was 21.9 nM.

Consider `CN1C(=O)C(NC(=O)c2ccc(I)cc2)N=C(c2ccccc2F)c2ccccc21` (stereo not drawn), for which the IC50 is 0.794 nM.

The IC50 is the concentration that gives 50% inhibition. Low readings indicate higher potency, high ones lower potency.
